Test results as given in article PMC4030805 (Analytical Chemistry, 2014).

Biological target: biotinylated Bcl-xL immobilized on streptavidin magnetic beads (Homo sapiens, UniProt Q07817)
Test: AMMP target-binding assay with in vitro translated peptides
Settings: concentration taken from the HA tag competition assay (Figure 3c)

Sequence of biotinylated Bcl-xL immobilized on streptavidin magnetic beads (Q07817 1-209 limits assumed): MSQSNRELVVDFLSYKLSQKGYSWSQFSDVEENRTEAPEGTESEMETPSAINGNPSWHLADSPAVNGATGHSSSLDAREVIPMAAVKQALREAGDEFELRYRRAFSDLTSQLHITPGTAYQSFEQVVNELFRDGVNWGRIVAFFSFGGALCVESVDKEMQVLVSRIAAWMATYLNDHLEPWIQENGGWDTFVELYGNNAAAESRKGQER

peptide concentration giving robust signal over background: 100 pM
Substance: H-MIETITIYKYKKAADHFSMSMGSGSGSYPYDVPDYA-NH2 [Pep1]
